Data on six compounds can be found in article PMC11649115, “In vitro safety evaluation of dopamine D3R antagonist, R-VK4-116, as a potential medication for the treatment of opioid use disorder” (PLOS ONE, 2024).

One data set has as its system cardiovascular effects. To be noted: dogs ref 4, 9; cited from earlier work.
A further data set addresses CYP2D6 (Homo sapiens, UniProt P10635). As to the kind of experiment: CYP inhibition in human liver microsomes. Conditions: human, microsomes. (Microsomes from liver hold many membrane-bound enzymes, among them those of drug oxidation.)
The next data set deals with T1, CYP2B6 (Homo sapiens, UniProt P20813).
T1 sequence (P20813 1-491): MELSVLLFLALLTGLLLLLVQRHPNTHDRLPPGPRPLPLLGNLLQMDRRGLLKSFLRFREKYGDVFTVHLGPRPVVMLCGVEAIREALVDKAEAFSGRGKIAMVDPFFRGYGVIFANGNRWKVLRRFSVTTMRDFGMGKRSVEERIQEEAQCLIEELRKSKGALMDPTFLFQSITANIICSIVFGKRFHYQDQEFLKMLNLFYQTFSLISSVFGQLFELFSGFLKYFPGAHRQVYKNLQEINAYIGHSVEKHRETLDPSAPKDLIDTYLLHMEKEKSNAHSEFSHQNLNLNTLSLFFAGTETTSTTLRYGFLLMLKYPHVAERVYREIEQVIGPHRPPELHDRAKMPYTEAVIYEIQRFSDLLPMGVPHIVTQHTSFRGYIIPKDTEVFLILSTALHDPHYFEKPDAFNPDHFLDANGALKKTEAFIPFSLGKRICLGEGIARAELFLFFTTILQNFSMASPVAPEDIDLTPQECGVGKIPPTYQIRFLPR
In words: CYP inhibition in human liver microsomes. Conditions: human, microsomes.

Another data set concerns the target CYP2C19 (Homo sapiens, UniProt P33261). As to the kind of experiment: CYP inhibition in human liver microsomes. Conditions: human, microsomes.
A further data set deals with CYP3A4 (Homo sapiens, UniProt P08684). In words: CYP inhibition in human liver microsomes.
For a further data set, the target named is CYP2C9 (Homo sapiens, UniProt P11712). As to the kind of experiment: CYP inhibition in human liver microsomes. Conditions: human, microsomes.
Another data set deals with T2, CYP1A2 (Homo sapiens, UniProt P05177).
T2 sequence (P05177 1-516): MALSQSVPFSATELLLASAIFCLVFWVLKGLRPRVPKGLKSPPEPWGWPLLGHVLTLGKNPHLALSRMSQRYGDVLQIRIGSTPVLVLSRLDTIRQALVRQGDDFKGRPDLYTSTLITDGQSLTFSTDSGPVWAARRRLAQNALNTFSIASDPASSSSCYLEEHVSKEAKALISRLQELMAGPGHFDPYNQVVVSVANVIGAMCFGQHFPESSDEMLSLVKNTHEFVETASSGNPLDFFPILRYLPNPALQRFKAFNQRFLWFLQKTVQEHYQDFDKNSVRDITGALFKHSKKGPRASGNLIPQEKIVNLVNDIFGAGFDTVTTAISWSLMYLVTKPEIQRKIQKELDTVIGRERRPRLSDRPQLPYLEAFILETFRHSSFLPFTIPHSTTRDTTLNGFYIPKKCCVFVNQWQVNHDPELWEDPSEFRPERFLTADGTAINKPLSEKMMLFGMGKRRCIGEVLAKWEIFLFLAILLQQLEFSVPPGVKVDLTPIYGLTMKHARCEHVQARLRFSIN
In words: CYP inhibition in human liver microsomes. Conditions: human, microsomes.

For a further data set, the target named is T3, CYP2C8 (Homo sapiens, UniProt P10632).
T3 sequence (P10632 1-490): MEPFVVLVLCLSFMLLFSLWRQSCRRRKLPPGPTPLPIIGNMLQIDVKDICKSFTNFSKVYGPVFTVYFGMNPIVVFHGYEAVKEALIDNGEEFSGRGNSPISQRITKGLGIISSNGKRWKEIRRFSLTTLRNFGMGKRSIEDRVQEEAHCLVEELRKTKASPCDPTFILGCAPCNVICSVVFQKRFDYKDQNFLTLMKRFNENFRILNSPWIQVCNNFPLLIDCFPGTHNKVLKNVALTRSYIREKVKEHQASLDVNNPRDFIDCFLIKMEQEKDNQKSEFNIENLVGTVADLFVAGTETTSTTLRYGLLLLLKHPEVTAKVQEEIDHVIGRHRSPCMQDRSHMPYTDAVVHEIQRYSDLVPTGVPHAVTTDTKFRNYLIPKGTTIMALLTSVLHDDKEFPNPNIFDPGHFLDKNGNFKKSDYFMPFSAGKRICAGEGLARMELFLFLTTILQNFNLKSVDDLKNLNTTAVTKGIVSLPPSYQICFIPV
In words: CYP inhibition in human liver microsomes. To be noted: human, microsomes.

A further data set has as its target T4, OATP1B1 (Homo sapiens, UniProt Q9Y6L6).
T4 construct: expressed in transfected cells; host or cells: MDCK-II cells
T4 sequence (Q9Y6L6 1-691): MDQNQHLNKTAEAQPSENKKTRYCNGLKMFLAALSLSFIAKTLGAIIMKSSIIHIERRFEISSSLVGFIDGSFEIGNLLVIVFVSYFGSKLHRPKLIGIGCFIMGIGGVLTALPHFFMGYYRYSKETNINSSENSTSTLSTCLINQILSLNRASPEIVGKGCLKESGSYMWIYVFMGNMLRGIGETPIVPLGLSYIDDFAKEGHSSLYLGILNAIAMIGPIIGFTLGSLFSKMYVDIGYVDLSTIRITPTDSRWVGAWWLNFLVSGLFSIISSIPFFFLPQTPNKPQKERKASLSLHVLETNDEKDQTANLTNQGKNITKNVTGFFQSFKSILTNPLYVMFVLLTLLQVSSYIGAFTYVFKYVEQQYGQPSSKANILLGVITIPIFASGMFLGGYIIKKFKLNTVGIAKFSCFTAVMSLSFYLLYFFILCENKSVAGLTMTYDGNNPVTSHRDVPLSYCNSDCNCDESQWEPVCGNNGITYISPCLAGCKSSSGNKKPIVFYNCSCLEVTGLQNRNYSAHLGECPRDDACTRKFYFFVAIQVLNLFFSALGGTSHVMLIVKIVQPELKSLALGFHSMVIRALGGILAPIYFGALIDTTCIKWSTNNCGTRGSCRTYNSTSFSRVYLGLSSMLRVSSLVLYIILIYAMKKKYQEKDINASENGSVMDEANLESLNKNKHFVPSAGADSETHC
In words: Transporter mediated assay (substrate/inhibitor), MDCK-II cells. It is filed as in vitro ADME. To be noted: human, polarized monolayer of MDCK-II cells expressing OATP1B1; OATP1B1, No BSA, 100 μM.

In a further data set the target is T5, OATP1B3 (Homo sapiens, UniProt Q9NPD5).
T5 construct: expressed in transfected cells; host or cells: MDCK-II cells
T5 sequence (Q9NPD5 1-702): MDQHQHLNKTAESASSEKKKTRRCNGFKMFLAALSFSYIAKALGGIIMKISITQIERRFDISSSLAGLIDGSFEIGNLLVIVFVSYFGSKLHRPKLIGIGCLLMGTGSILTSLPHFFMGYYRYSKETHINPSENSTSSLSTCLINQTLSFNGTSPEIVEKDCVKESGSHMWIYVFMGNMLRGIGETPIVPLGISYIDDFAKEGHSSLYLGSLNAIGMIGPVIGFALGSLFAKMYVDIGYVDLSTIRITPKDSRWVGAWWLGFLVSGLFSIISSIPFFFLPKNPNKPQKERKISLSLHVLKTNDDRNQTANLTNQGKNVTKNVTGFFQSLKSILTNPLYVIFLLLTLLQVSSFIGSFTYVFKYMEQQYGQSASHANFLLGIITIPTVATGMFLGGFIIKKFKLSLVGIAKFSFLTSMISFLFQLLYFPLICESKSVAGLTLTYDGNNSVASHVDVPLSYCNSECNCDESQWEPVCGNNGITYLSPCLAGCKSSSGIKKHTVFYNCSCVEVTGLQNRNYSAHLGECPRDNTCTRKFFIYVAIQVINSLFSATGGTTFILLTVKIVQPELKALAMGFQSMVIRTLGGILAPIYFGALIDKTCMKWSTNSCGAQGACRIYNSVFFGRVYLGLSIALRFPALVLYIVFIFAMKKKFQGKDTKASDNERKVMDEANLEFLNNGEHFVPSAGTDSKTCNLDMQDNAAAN
The data set is described as above. Conditions: human, polarized monolayer of MDCK-II cells expressing OATP1B3; OATP1B3, No BSA, 100 μM. Format: in vitro ADME.

In another data set the target is T6, MATE1 (Homo sapiens, UniProt Q96FL8).
T6 construct: expressed in transfected cells; host or cells: MDCK-II cells
T6 sequence (Q96FL8 1-570): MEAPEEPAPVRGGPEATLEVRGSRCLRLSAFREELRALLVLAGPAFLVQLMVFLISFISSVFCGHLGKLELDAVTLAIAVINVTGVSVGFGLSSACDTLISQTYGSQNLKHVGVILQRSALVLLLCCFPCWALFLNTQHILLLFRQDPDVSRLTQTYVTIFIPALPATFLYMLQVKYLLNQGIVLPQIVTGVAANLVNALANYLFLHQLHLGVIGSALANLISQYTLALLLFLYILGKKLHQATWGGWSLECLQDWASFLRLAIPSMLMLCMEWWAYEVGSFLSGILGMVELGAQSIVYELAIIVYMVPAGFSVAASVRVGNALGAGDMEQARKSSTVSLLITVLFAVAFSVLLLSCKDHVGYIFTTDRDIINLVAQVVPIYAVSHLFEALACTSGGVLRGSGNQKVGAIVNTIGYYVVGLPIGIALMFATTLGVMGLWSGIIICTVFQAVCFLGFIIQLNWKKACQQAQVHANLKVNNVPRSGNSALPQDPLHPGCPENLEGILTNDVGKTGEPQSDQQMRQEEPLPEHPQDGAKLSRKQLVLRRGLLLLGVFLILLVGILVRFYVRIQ
Described as above. It is filed as in vitro ADME. Conditions: human, polarized monolayer of MDCK-II cells expressing MATE1; MATE1, No BSA, 100 μM.

The target of the next data set is T7, MATE2-K (Homo sapiens, UniProt Q86VL8).
T7 construct: expressed in transfected cells; host or cells: MDCK-II cells
The description is as above. It is filed as in vitro ADME. To be noted: human, polarized monolayer of MDCK-II cells expressing MATE2-K, No BSA, 100 μM.

For a further data set, the target named is T8, OAT3 (Homo sapiens, UniProt Q8TCC7).
T8 construct: expressed in transfected cells; host or cells: MDCK-II cells
T8 sequence (Q8TCC7 1-542): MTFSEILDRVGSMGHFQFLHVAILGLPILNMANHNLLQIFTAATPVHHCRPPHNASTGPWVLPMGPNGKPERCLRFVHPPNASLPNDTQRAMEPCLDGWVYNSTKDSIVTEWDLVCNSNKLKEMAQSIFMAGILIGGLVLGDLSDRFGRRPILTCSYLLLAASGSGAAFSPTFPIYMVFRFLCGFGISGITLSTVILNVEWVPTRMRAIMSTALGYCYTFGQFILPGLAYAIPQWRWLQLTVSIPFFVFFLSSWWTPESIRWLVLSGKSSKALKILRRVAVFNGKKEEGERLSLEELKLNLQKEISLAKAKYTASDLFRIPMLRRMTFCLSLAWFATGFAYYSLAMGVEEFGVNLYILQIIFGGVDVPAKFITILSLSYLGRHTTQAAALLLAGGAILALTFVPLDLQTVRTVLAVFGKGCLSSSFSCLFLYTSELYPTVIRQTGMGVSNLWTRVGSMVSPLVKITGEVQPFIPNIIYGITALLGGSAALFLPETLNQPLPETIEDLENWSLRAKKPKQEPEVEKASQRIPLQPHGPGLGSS
The description is as above. It is filed as in vitro ADME. Conditions: human; OAT3, No BSA, 100 μM.

[1] abbreviates: CYP activity (% of Control) 3A4 (Midazolam), substrate midazolam.
The mark [2] stands for this setting: CYP activity (% of Control) 3A4 (Testosterone), substrate testosterone.

Sequence of CYP3A4 (P08684 2-503): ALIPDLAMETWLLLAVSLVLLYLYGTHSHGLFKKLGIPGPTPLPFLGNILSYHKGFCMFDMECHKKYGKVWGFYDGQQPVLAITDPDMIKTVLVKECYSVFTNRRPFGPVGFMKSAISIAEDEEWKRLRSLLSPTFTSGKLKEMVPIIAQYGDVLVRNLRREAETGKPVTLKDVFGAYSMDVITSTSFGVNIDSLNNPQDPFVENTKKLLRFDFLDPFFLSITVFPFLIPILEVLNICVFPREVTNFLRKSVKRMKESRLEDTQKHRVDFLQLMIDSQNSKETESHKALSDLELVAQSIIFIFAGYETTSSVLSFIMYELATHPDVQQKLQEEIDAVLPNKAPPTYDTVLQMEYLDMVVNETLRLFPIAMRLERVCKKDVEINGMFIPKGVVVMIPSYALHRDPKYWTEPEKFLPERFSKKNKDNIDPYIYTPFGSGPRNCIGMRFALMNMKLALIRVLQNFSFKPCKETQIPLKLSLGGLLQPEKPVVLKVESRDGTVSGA
Sequence of CYP2C19 (P33261 whole entry): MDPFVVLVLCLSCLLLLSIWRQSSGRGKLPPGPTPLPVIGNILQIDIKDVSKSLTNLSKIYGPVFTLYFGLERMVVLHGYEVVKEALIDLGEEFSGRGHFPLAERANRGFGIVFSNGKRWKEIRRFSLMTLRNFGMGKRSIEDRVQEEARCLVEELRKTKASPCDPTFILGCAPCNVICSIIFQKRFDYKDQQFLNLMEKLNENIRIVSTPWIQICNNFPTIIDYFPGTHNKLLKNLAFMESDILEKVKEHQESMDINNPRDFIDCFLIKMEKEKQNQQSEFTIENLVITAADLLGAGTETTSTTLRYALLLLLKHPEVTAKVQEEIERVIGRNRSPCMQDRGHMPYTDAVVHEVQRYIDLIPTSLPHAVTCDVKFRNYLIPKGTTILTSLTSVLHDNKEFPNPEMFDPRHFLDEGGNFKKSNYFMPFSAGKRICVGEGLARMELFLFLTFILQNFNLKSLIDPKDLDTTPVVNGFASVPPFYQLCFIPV
Sequence of CYP2D6 (P10635 whole entry): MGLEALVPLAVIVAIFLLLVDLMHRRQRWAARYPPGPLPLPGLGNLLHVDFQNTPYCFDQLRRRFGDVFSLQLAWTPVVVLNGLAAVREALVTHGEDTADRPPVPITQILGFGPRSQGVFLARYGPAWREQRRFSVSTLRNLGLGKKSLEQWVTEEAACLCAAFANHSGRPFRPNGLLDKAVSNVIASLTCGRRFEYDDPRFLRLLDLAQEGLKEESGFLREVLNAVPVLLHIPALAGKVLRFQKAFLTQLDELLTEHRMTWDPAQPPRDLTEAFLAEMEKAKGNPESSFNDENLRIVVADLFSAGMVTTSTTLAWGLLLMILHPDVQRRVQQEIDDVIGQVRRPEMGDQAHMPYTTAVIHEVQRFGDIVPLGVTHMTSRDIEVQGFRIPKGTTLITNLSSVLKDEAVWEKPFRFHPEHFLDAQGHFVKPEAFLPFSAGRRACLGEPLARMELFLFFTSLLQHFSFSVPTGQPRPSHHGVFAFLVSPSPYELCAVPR
Sequence of CYP2C9 (P11712 whole entry): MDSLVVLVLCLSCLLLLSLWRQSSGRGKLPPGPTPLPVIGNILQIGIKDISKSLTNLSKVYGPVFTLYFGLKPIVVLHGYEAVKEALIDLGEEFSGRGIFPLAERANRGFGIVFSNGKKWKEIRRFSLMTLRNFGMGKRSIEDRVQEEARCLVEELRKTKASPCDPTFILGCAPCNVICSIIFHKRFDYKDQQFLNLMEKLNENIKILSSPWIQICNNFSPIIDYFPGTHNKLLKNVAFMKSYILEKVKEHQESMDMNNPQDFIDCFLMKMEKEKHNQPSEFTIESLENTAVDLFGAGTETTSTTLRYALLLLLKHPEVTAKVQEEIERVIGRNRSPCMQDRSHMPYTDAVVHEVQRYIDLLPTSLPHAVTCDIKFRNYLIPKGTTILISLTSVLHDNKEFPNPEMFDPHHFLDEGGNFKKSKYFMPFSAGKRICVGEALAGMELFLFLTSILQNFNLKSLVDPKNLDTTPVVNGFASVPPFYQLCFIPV
T7 sequence (Q86VL8 1-566 isoform Q86VL8-3): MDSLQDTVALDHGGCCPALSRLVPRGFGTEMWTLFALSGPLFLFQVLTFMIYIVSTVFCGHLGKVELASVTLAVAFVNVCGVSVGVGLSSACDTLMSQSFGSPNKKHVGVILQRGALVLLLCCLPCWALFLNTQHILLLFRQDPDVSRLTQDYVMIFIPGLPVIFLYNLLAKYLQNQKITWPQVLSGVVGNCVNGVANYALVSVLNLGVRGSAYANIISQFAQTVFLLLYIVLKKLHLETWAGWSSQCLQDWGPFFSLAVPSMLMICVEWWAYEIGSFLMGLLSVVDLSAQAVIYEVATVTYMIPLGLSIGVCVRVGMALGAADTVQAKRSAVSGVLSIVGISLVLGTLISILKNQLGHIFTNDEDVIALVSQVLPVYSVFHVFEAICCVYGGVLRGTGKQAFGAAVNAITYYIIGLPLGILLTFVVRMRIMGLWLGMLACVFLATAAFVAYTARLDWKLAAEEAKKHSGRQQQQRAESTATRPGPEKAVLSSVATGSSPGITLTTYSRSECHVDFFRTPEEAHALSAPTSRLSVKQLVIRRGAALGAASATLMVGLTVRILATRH
Experimental for MATE1: (§1) The MDCK-II cells were treated to express the transporter of interest. The transport of each probe substrate was determined by radiometric detection (Fig 1 in S1 File). […] For the uptake assay, the net transporter-mediated uptake-rate (V) of the substrate by each SLC transporter was calculated as follows: Transporter–mediatedupdaterate(pmol/min/cm^2)=(Cellularaccumulationincellsexpressingthetransporter)−(Meancellularaccumulationincontrolcells)/Surfacearea×incubationtime
(§2) Fold of activity and percent inhibition were determined as follows: Foldofactivity=(Meanuptakerate)transporterexpressingcells/(Meanuptakerate)controlcells Percentinhibition=100−100×(Transport‐mediatedupdaterate)withinhibitor/(Transport‐mediatedupdaterate)vehiclecontrol
Experimental for MATE2-K: The MDCK-II cells were treated to express the transporter of interest. […] For the uptake assay, the net transporter-mediated uptake-rate (V) of the substrate by each SLC transporter was calculated as follows: Transporter–mediatedupdaterate(pmol/min/cm^2)=(Cellularaccumulationincellsexpressingthetransporter)−(Meancellularaccumulationincontrolcells)/Surfacearea×incubationtime
as §2
Experimental for OAT3: as §1, §2
Experimental for OATP1B1: as §1, §2
Experimental for OATP1B3: as §1, §2

For `Cc1ncoc1-c1nnc(SCCCN2C[C@@H]3C[C@]3(c3ccc(C(F)(F)F)cc3F)C2)n1C` [GSK598,809], the “cardiovascular effect in combination with cocaine” value in the data set with cardiovascular effects is on record as “hypertension”.
Turning to `C=C(C)[C@@H]1CCC2=CC(=O)C[C@@H](C)[C@]2(C)C1` [Nootkatone], the activity at 20 min, 30 µM on CYP2D6 came out at 91.9 ± 8.4%; on CYP2B6, 23.8 ± 2.7%; at CYP2C19, 57.3 ± 5.7%; at CYP3A4 (setting [1]), 84.5 ± 4%; on CYP3A4 (setting [2]), 79.4 ± 5.4%; on CYP2C9, 84.6 ± 8.5%. The activity at 20 min, 30 µM was 91.3 ± 4.8% at CYP1A2 and 78.8 ± 12.5% at CYP2C8.
With `CO[C@H]1/C=C/O[C@@]2(C)Oc3c(C)c(O)c4c(O)c(c(/C=N/N5CCN(C)CC5)c(O)c4c3C2=O)NC(=O)/C(C)=C\C=C\[C@H](C)[C@H](O)[C@@H](C)[C@@H](O)[C@@H](C)[C@H](OC(C)=O)[C@@H]1C` [Rifampicin, reference compound], the results for the inhibition at 100 µM on OATP1B1 and against OATP1B3 were 98.3 ± 1.37% and 99.2 ± 0.26%, respectively.
Consider `S=P(N1CC1)(N1CC1)N1CC1` [ThioTEPA], for which the activity at 20 min, 10 µM came to 90.7 ± 2% on CYP2D6; 52 ± 0.1% on CYP2B6; 108 ± 4.3% at CYP2C19; 92.6 ± 2.2% at CYP3A4 (setting [1]); 91.4 ± 1.3% at CYP3A4 (setting [2]); 92.9 ± 1.5% on CYP2C9. Moreover, the activity at 20 min, 10 µM on CYP1A2 turned out to be 93.8 ± 4.3%; at CYP2C8, 96.8 ± 4.4%.
For the compound `CN/C(=N/CCSCc1nc[nH]c1C)NC#N` [cimetidine, reference compound], the figures for the inhibition at 100 µM on MATE1 and against MATE2-K were 99.3 ± 0.22% and 95.9 ± 0.59%, respectively.
In turn, `CCCN(CCC)S(=O)(=O)c1ccc(C(=O)O)cc1` [probenecid, reference compound] gave an inhibition at 100 µM against OAT3 of 95.3 ± 0.73%.

By inhibition is commonly meant the percentage by which the read-out fell short of the control. Read a low inhibition as a response near the control.
